According to ChEMBL document CHEMBL3885861, “Open TG-GATES”:

Species: Rattus norvegicus
Assay: Open TG-GATES - Regimen: Single
Type: toxicity, organism-based, Sprague-Dawley
Design: regimen Single, gender Male, age 6 weeks
Conditions: in vivo, po, 15 mg/kg, route gavage, dose level Middle; for APTT / Bas / Eos / Fbg / Hb / Ht / Lym / MCH / MCHC / MCV / Mono / Neu / PT / Plat / RBC / Ret / WBC: tissue Blood; for KIDNEY_L / KIDNEY_R / KIDNEY_TOTAL: tissue Kidney; for LIVER: tissue Liver; for A/G / ALP / ALT / AST / BUN / CRE / Ca / Cl / DBIL / GLC / IP / K / LDH / Na / PL / RALB / TBIL / TC / TG / TP / gamma-GTP: tissue Plasma

**Q.** Which results are given for `CC(=N)S` [THIOACETAMIDE]?
**A.** TERMINAL_BW (3 h): 190.8 g; APTT (3 h): 16.9 s; Bas (3 h): 0%; Eos (3 h): 0.2%; Fbg (3 h): 228 mg/dL; Hb (3 h): 13.2 g/dL; Ht (3 h): 39.8%; Lym (3 h): 82%; MCH (3 h): 21.7 pg; MCHC (3 h): 33.1%; MCV (3 h): 65.4 fL; Mono (3 h): 8%; Neu (3 h): 10%; PT (3 h): 12.4 s; Plat (3 h): 102.8 x10_4/uL; RBC (3 h): 608.5 x10_4/ul; Ret (3 h): 10%; WBC (3 h): 130 x10_2/uL; KIDNEY_L (3 h): 0.9 g; KIDNEY_R (3 h): 0.9 g; KIDNEY_TOTAL (3 h): 1.8 g; LIVER (3 h): 8.9 g; A/G (3 h): 2.4; ALP (3 h): 868.5 IU/L; ALT (3 h): 33.8 IU/L; AST (3 h): 71 IU/L; BUN (3 h): 11.8 mg/dL; CRE (3 h): 0.5 mg/dL; Ca (3 h): 10.9 mg/dL; Cl (3 h): 104.5 meq/L; DBIL (3 h): 0.0025 mg/dL; GLC (3 h): 175.8 mg/dL; IP (3 h): 9.6 mg/dL; K (3 h): 4.4 meq/L; LDH (3 h): 84.2 IU/L; Na (3 h): 138.8 meq/L; PL (3 h): 141.5 mg/dL; RALB (3 h): 4 g/dL; TBIL (3 h): 0.3 mg/dL; TC (3 h): 81.5 mg/dL; TG (3 h): 55 mg/dL; TP (3 h): 5.7 g/dL; gamma-GTP (3 h): 3.2 IU/L; TERMINAL_BW (6 h): 187.8 g; APTT (6 h): 17.2 s; Bas (6 h): 0%; Eos (6 h): 0.6%; Fbg (6 h): 224.8 mg/dL; Hb (6 h): 13.4 g/dL; Ht (6 h): 40.5%; Lym (6 h): 74.6%; MCH (6 h): 21.6 pg; MCHC (6 h): 33.2%; MCV (6 h): 65.1 fL; Mono (6 h): 5.8%; Neu (6 h): 19.4%; PT (6 h): 12.7 s; Plat (6 h): 97.4 x10_4/uL; RBC (6 h): 621.2 x10_4/ul; Ret (6 h): 10%; WBC (6 h): 125.4 x10_2/uL; KIDNEY_L (6 h): 0.9 g; KIDNEY_R (6 h): 0.9 g; KIDNEY_TOTAL (6 h): 1.8 g; LIVER (6 h): 8.4 g; A/G (6 h): 2.1; ALP (6 h): 924.4 IU/L; ALT (6 h): 33 IU/L; AST (6 h): 70.4 IU/L; BUN (6 h): 10.2 mg/dL; CRE (6 h): 0.6 mg/dL; Ca (6 h): 10.5 mg/dL; Cl (6 h): 104 meq/L; DBIL (6 h): 0.022 mg/dL; GLC (6 h): 171.4 mg/dL; IP (6 h): 9.1 mg/dL; K (6 h): 4.9 meq/L; LDH (6 h): 77 IU/L; Na (6 h): 137.2 meq/L; PL (6 h): 142.8 mg/dL; RALB (6 h): 3.7 g/dL; TBIL (6 h): 0.4 mg/dL; TC (6 h): 80 mg/dL; TG (6 h): 73 mg/dL; TP (6 h): 5.4 g/dL; gamma-GTP (6 h): 1 IU/L; TERMINAL_BW (9 h): 183.3 g; APTT (9 h): 17.2 s; Bas (9 h): 0%; Eos (9 h): 0.6%; Fbg (9 h): 226 mg/dL; Hb (9 h): 13.2 g/dL; Ht (9 h): 40.2%; Lym (9 h): 67.2%; MCH (9 h): 21.5 pg; MCHC (9 h): 33%; MCV (9 h): 65.1 fL; Mono (9 h): 8.8%; Neu (9 h): 23.4%; PT (9 h): 13.3 s; Plat (9 h): 107 x10_4/uL; RBC (9 h): 617.4 x10_4/ul; Ret (9 h): 9.1%; WBC (9 h): 126.9 x10_2/uL; KIDNEY_L (9 h): 0.8 g; KIDNEY_R (9 h): 0.8 g; KIDNEY_TOTAL (9 h): 1.7 g; LIVER (9 h): 7.7 g; A/G (9 h): 2.2; ALP (9 h): 887.6 IU/L; ALT (9 h): 31.6 IU/L; AST (9 h): 71.6 IU/L; BUN (9 h): 12.6 mg/dL; CRE (9 h): 0.5 mg/dL; Ca (9 h): 10.2 mg/dL; Cl (9 h): 104.2 meq/L; DBIL (9 h): 0.006 mg/dL; GLC (9 h): 178.2 mg/dL; IP (9 h): 9.8 mg/dL; K (9 h): 4.5 meq/L; LDH (9 h): 93.6 IU/L; Na (9 h): 137.2 meq/L; PL (9 h): 122.6 mg/dL; RALB (9 h): 3.8 g/dL; TBIL (9 h): 0.5 mg/dL; TC (9 h): 71.6 mg/dL; TG (9 h): 40.6 mg/dL; TP (9 h): 5.6 g/dL; gamma-GTP (9 h): 1.4 IU/L; TERMINAL_BW (24 h): 202.6 g; APTT (24 h): 16.4 s; Bas (24 h): 0%; Eos (24 h): 1%; Fbg (24 h): 231.6 mg/dL; Hb (24 h): 13.5 g/dL; Ht (24 h): 40.7%; Lym (24 h): 83.8%; MCH (24 h): 21.9 pg; MCHC (24 h): 33.1%; MCV (24 h): 66.1 fL; Mono (24 h): 6.2%; Neu (24 h): 9%; PT (24 h): 12.8 s; Plat (24 h): 107.7 x10_4/uL; RBC (24 h): 616 x10_4/ul; Ret (24 h): 9.1%; WBC (24 h): 163 x10_2/uL; KIDNEY_L (24 h): 1 g; KIDNEY_R (24 h): 0.9 g; KIDNEY_TOTAL (24 h): 1.9 g; LIVER (24 h): 10.2 g; A/G (24 h): 2; ALP (24 h): 915.6 IU/L; ALT (24 h): 44.4 IU/L; AST (24 h): 71 IU/L; BUN (24 h): 17.2 mg/dL; CRE (24 h): 0.5 mg/dL; Ca (24 h): 10.6 mg/dL; Cl (24 h): 103.8 meq/L; DBIL (24 h): 0.014 mg/dL; GLC (24 h): 179.6 mg/dL; IP (24 h): 7.5 mg/dL; K (24 h): 5.1 meq/L; LDH (24 h): 98.6 IU/L; Na (24 h): 137 meq/L; PL (24 h): 164 mg/dL; RALB (24 h): 3.9 g/dL; TBIL (24 h): 0.3 mg/dL; TC (24 h): 85.2 mg/dL; TG (24 h): 149.8 mg/dL; TP (24 h): 5.8 g/dL; gamma-GTP (24 h): 2.4 IU/L
